The source of these data is US20200405752A1, “ANTITUMOR AGENT, ANTITUMOR EFFECT ENHANCER, AND ANTITUMOR KIT” (FUJIFILM Corporation, priority 2018, published 2020).

Assay [1] concerns human cholangiocarcinoma-derived cell line HuCC-T1. In words: Cell viability (CellTiter Glo) of HuCC-T1 in combination with cisplatin. It counts as cell-based. Conditions: for viability at 0.0015 µM / viability at 0.0046 µM / viability at 0.0137 µM / viability at 0.0412 µM / viability at 0.1235 µM / viability at 0.3704 µM / viability at 1.1111 µM / viability at 3.3333 µM / viability at 10 µM / IC50: Homo sapiens; for viability at 0.0015 µM / viability at 0.0046 µM / viability at 0.0137 µM / viability at 0.0412 µM / viability at 0.1235 µM / viability at 0.3704 µM / viability at 1.1111 µM / viability at 3.3333 µM / viability at 10 µM: HuCCT-1, 72 h, with cisplatin 10 μmol/L, 3 days; for viability at 0.0015 µM: test substance 1.5 nM; for viability at 0.0046 µM: test substance 4.6 nM; for viability at 0.0137 µM: test substance 13.7 nM; for viability at 0.0412 µM: test substance 41.2 nM; for viability at 0.1235 µM: test substance 123.5 nM; for viability at 0.3704 µM: test substance 370.4 nM; for viability at 1.1111 µM: test substance 1111.1 nM; for viability at 3.3333 µM: test substance 3333.3 nM; for viability at 10 µM: test substance 10000.0 nM; for IC50: HuCCT-1, used in combination with cisplatin (10 μmol/L, Table 8); for CI: combination with cisplatin. The text has this:
(§1) On the combinational effect of the embodiment of the invention, the results of evaluation using a combination index (CI) which is a quantitative index of the combinational effect are shown. The CI can be calculated by the following equation according to Cancer Research, 2010, Vol. 70, pp. 440 to 446.
(§2) That is, in a case where the drugs to be used in combination are drug 1 and drug 2, the CI at a certain drug concentration is
(§3) CI={(cell viability in case of using drug 1 and drug 2 in combination)/100}/{[(cell viability in case of using drug 1)/100]×[(cell viability in case of using drug 2)/100]}
Evaluation of antitumor activity against human cholangiocarcinoma-derived cell line HuCC-T1 in combination with cisplatin
Furthermore, the antitumor activity against the human cholangiocarcinoma-derived cell line HuCC-T1 in combination with cisplatin was evaluated in the same manner as in Test Example 1.
(§4) Gemcitabine, cisplatin, and methanesulfonate of Compound A were used as test substances.
Gemcitabine hydrochloride (manufactured by Plantex Co., Ltd.) dissolved in DMSO was used as gemcitabine. Cisplatin (Cat. #039-20091, manufactured by Wako Pure Chemical Industries, Ltd.) dissolved in serum-free RPMI-1640 medium (Cat. #11875-119, manufactured by Thermo Fisher Scientific Inc.) was used as cisplatin.
Human cholangiocarcinoma cell line HuCC-T1 cells were subcultured in RPMI-1640 medium supplemented with 10% serum (Cat. #10437-028, manufactured by Thermo Fisher Scientific Inc.). During this test, all cell cultures were carried out in a CO2 incubator (set to 37° C. and 5% CO2, saturated with water vapor). The culture was diluted with a 10% serum-supplemented medium to a cell density of 15000 cells/well/100 μL and the cells were seeded on a 96-well plate. On the next day, the culture supernatant of each well was discarded, followed by washing twice with 150 μL of serum-free medium, and 100 μL of serum-free medium was added thereto, followed by culturing for 3 days.
The methanesulfonate of Compound A and gemcitabine were dissolved in DMSO to prepare […] DMSO solutions thereof. The thus-prepared DMSO solutions were diluted sequentially with DMSO to prepare DMSO solutions having a final treatment concentration of 1000-fold dilution. Cisplatin was dissolved in serum-free medium to prepare a cisplatin solution 60 μmol/L. The DMSO diluted solutions of Compound A and gemcitabine were diluted with the cisplatin solution (60 μmol/L) to prepare treatment liquids having a final treatment concentration of 6-fold dilution. Compound A and gemcitabine were used with a maximum concentration of 10 μmol/L at a common ratio of 1/3 and 9 concentrations in combination with cisplatin.
20 μL of Compound A or gemcitabine diluted with the cisplatin solution (60 μmol/L) was added to each well. In addition, a group in which only a solvent containing no drug was added to wells in which cells were seeded (positive control), and a group in which only a solvent containing no drug was added to wells containing only a medium (negative control) were provided. All groups were set to n=3 well.
(§5) The cells were cultured for 3 days after the addition of the drug, and the cell viability was evaluated using a CellTiter Glo (registered trademark) Reagent (Cat. #G7570, manufactured by Promega Corporation) with the intracellular ATP level as an index. The concentration that inhibits cell viability by 50% (IC50 value) was calculated using XLFit software Ver.3 (registered trademark, manufactured by CTC Laboratory Systems Corporation).
The cell viability of each well was determined with the luminescence signal level of the negative control being 0% cell viability and the luminescence signal level of the positive control being 100% cell viability. The average value and standard deviation of the cell viability of each treatment group were calculated to prepare Table 8.
A general note: Cellular ATP, detected with luciferase, serves as a proxy for viable cell number.

Assay [2] deals with cholangiocarcinoma cell line HuCC-T1 (spheroid culture). In words: Cell viability (CellTiter Glo) of HuCC-T1 in spheroid culture in combination with cisplatin. It counts as cell-based, human. To be noted: for viability at 0.001 µM / viability at 0.003 µM / viability at 0.01 µM / viability at 0.03 µM / viability at 0.1 µM / viability at 0.3 µM / viability at 1 µM / viability at 3 µM / viability at 10 µM / IC50: Homo sapiens; for viability at 0.001 µM / viability at 0.003 µM / viability at 0.01 µM / viability at 0.03 µM / viability at 0.1 µM / viability at 0.3 µM / viability at 1 µM / viability at 3 µM / viability at 10 µM: HuCCT-1, 72 h, HuCC-T1 spheroid, with cisplatin 10 μmol/L, 3 days; for viability at 0.001 µM: test substance 1.0 nM; for viability at 0.003 µM: test substance 3.0 nM; for viability at 0.01 µM: test substance 10.0 nM; for viability at 0.03 µM: test substance 30.0 nM; for viability at 0.1 µM: test substance 100.0 nM; for viability at 0.3 µM: test substance 300.0 nM; for viability at 1 µM: test substance 1000.0 nM; for viability at 3 µM: test substance 3000.0 nM; for viability at 10 µM: test substance 10000.0 nM; for IC50: HuCCT-1, in combination with cisplatin (10 μmol/L); for IC50 / CI: HuCC-T1 spheroid culture; for CI: combination with cisplatin.
Source text: as §1, §2, §3
Evaluation of Antitumor Activity Against Cholangiocarcinoma Cell Line HuCC-T1 by Combined Use of Cisplatin in Spheroid Culture
as §4
Gemcitabine hydrochloride (manufactured by Plantex Co., Ltd.) dissolved in dimethyl sulfoxide (DMSO) was used as gemcitabine. Cisplatin (Cat. #039-20091, manufactured by Wako Pure Chemical Industries, Ltd.) dissolved in DMSO was used as cisplatin.
The cholangiocarcinoma cell line HuCC-T1 cells were subcultured in RPMI-1640 medium supplemented with 10% serum (Cat. #10437-028, manufactured by Thermo Fisher Scientific Inc.). During this test, all cell cultures were carried out in a CO2 incubator (set to 37° C. and 5% CO2, saturated with water vapor). The culture was diluted with 10% serum-supplemented medium to a cell density of 5000 cells/well/100 μL, and seeded on an Ultra-Low Attachment 96-well plate (Cat. #7007, manufactured by Corning Incorporated). The cells were cultured for 4 days to form spheroids.
The methanesulfonate of Compound A and gemcitabine were dissolved in DMSO to prepare 10 mmol/L DMSO solutions thereof. The thus-prepared DMSO solutions were diluted sequentially with DMSO to prepare DMSO solutions having a final treatment concentration of 1000-fold dilution. Cisplatin was dissolved in DMSO to prepare a 100 mmol/L DMSO solution. The thus-prepared DMSO solution of cisplatin was diluted with DMSO to prepare a DMSO solution having a final treatment concentration of 5000-fold dilution. Further, the DMSO solution of cisplatin was diluted with 10% serum-supplemented medium to prepare a cisplatin-containing medium having a final treatment concentration of 10-fold dilution. The DMSO diluted solutions of Compound A and gemcitabine were diluted with the cisplatin-containing medium to prepare treatment liquids having a final treatment concentration of 10-fold dilution. Compound A and gemcitabine were used with a maximum concentration of 10 μmol/L at a common ratio of 1/3 and 9 concentrations in combination with cisplatin (10 μmol/L).
10 μL of Compound A or gemcitabine diluted with the cisplatin-containing medium was added to each well. In addition, a group in which only a solvent containing no drug was added to wells in which cells were seeded (positive control), and a group in which only a solvent containing no drug was added to wells containing only a medium (negative control) were provided. All groups were set to n=3 well.
as §5
The cell viability of each well was determined with the luminescence signal level of the negative control being 0% cell viability and the luminescence signal level of the positive control being 100% cell viability. The average value and standard deviation of the cell viability of each treatment group were calculated to prepare Table 10.

Molecules are shown by their SMILES.

As for `Nc1ccn([C@@H]2S[C@H](CO)[C@@H](O)[C@@H]2F)c(=O)n1` [Compound A, 1-(2-deoxy-2-fluoro-4-thio-β-D-arabinofuranosyl)cytosine], in assay [1], the viability at 0.0015 µM was found to be 117%, the viability at 0.0046 µM is 114%, the viability at 0.0137 µM was 110% and the viability at 0.0412 µM worked out at 96%. In addition, in assay [1], the viability at 0.1235 µM amounted to 66%, the viability at 0.3704 µM was determined as 44%, the viability at 1.1111 µM was found to be 40% and the viability at 3.3333 µM is 36%. Also, in assay [1], the viability at 10 µM was determined as 34%, the concentration for half-maximal inhibition (IC50) worked out at 0.261 µM and the CI stood at 0.34. Besides, in assay [2], the viability at 0.001 µM is 95%, the viability at 0.003 µM is 93%, the viability at 0.01 µM turned out to be 87% and the viability at 0.03 µM was 77%. Moreover, in assay [2], the viability at 0.1 µM came out at 58%, the viability at 0.3 µM came to 41%, the viability at 1 µM is 36% and the viability at 3 µM amounted to 35%. For the same molecule, in assay [2], the viability at 10 µM amounted to 34%, the concentration for half-maximal inhibition (IC50) turned out to be 0.165 µM and the CI was found to be 0.42.

As for `Nc1ccn([C@@H]2O[C@H](CO)[C@@H](O)C2(F)F)c(=O)n1` [Gemcitabine], in assay [1], the viability at 0.0015 µM came to 114%, the viability at 0.0046 µM is 113%, the viability at 0.0137 µM was determined as 116% and the viability at 0.0412 µM was 113%. In assay [1], the viability at 0.1235 µM came to 116%, the viability at 0.3704 µM came to 113%, the viability at 1.1111 µM is 103% and the viability at 3.3333 µM amounted to 83%. Also, in assay [1], the viability at 10 µM is 56%, the 50% inhibitory concentration (IC50) is ≥ 10 µM and the CI was 0.90. Besides, in assay [2], the viability at 0.001 µM is 94%, the viability at 0.003 µM was 96%, the viability at 0.01 µM is 94% and the viability at 0.03 µM came to 90%. Besides, in assay [2], the viability at 0.1 µM turned out to be 88%, the viability at 0.3 µM was 84%, the viability at 1 µM was 79% and the viability at 3 µM is 73%. Also, in assay [2], the viability at 10 µM worked out at 50%, the IC50 is ≥ 10 µM and the CI was 0.79.

The term viability denotes a read-out of living cells in per cent, often relative to untreated cells. A word on the IC50: it is the midpoint of a concentration-inhibition curve.
